The source of these data is patent US6642180B1, “Biphenyl-substituted cyclic ketoenols as pesticides” (Bayer Aktiengesellschaft, priority 1999, dated 2003).

Structures are written as SMILES.

What all share (format): in vivo
Test [1] relates to larvae of the mustard beetle (Phaedon cochleariae). The test is described as follows: Phaedon-larvae test. Conditions: cabbage leaves dipped. The procedure: Phaedon-larvae Test Solvent: 7 parts by weight of dimethylformamide Emulsifier: 1 part by weight of alkylaryl polyglycol ether To produce a suitable preparation of active compound, 1 part by weight of active compound is mixed with a stated amount of solvent and emulsifier, and the concentrate is diluted with emulsifier-containing water to the desired concentration. Cabbage leaves (Brassica oleracea) are treated by being dipped into the preparation of active compound of the desired concentration and are populated with larvae of the mustard beetle (Phaedon cochleariae) while the leaves are still moist.

A further test concerns Meloidogyne incognita. As to the kind of experiment: Meloidogyne test. Conditions: sand, Meloidogyne incognita egg/larvae suspension, lettuce. The procedure: Solvent: 7 parts by weight of dimethylformamide
(§1) Emulsifier: 1 parts by weight of alkylaryl polyglycol ether
To produce a suitable preparation of active compound, 1 part by weight of active compound is mixed with the stated amounts of solvent and emulsifier, and the concentrate is diluted with water to the desired concentration.
Containers are filled with sand, solution of active compound, Meloidogyne incognita-egg/larvae suspension and lettuce seeds. The lettuce seeds germinate and the plants develop. On the roots, galls are formed.
After the desired period of time, the nematicidal action is determined in % by the gall formation. 100% means that no galls were found; 0% means that the number of galls on the treated plants corresponds to that of the untreated control.

For another test, the system named is Abutilon. As to the kind of experiment: Pre-emergence test (greenhouse). The settings on record: 250 g ai./ha, after 3 weeks. The procedure: (§2) Solvent: 5 parts by weight of acetone
(§3) Emulsifier: 1 part by weight of alkylaryl polyglycol ether
(§4) To produce a suitable preparation of active compound, 1 part by weight of active compound is mixed with the stated amount of solvent, with the stated amounts of emulsifiers added and the concentrate is diluted with water to the desired concentration.
(§5) Seeds of the test plants are sown in normal soil. After about 24 hours, the soil is sprayed with the preparation of active compound such that the particular amounts of active compound desired are applied per unit area. The concentration of the spray liquor is chosen such that the particular amounts of active compound desired are applied in 1000 l of water/ha.
(§6) After 3 weeks, the degree of damage to the plants is rated in % damage in comparison to the development of the untreated control.
(§7) 0%=no effect (like untreated control)

Test [2] concerns Alopecurus. As to the kind of experiment: Pre-emergence test (greenhouse). The settings on record: 250 g ai./ha, after 3 weeks. The procedure:
as §2, §3, §4, §5, §6, §7

The test system of the next test is Avena fatua. As to the kind of experiment: Pre-emergence test (greenhouse). Conditions: 250 g ai./ha, after 3 weeks. The procedure: as §2, §3, §4, §5, §6, §7
Test [3] concerns Echinochloa. As to the kind of experiment: Pre-emergence test (greenhouse). Conditions: 250 g ai./ha, after 3 weeks. The procedure:
as §2, §3, §4, §5, §6, §7

The subject of test [4] is Setaria. As to the kind of experiment: Pre-emergence test (greenhouse). Conditions: 250 g ai./ha, after 3 weeks. The procedure: as §2, §3, §4, §5, §6, §7
Test [5] has as its system Alopecurus. As to the kind of experiment: Post-emergence test (greenhouse). The settings on record: 250 g ai./ha, after three weeks. The procedure:
as §2, §1
(§8) To produce a suitable preparation of active compound, 1 part by weight of active compound is mixed with the stated amount of solvent, the stated amount of emulsifier is added and the concentrate is diluted with water to the desired concentration.
(§9) Test plants of a height of 5-15 cm are sprayed with the preparation of active compound such that the particular amounts of active compound desired are applied per unit area. The concentration of the spray liquor is chosen such that the particular amounts of active compound desired are applied in 1000 l of water/ha.
(§10) After three weeks, the degree of damage to the plants is rated in % damage in comparison to the development of the untreated control.
(§11) 0% no effect (like untreated control)
(§12) Post-emergence/greenhouse

Test [6] has as its system Echinochloa. As to the kind of experiment: Post-emergence test (greenhouse). The settings on record: 250 g ai./ha, after three weeks. The procedure: as §2, §1, §8, §9, §10, §11, §12
The subject of test [7] is Setaria. As to the kind of experiment: Post-emergence test (greenhouse). Conditions: 250 g ai./ha, after three weeks. The procedure: as §2, §1, §8, §9, §10, §11, §12
For the next test, the system named is Sugar beet. As to the kind of experiment: Post-emergence test (greenhouse). Conditions: 250 g ai./ha, after three weeks. The procedure:
as §2, §1, §8, §9, §10, §11, §12

`COC(=O)N(C)COC1=C(c2c(C)cc(-c3ccc(Cl)cc3)cc2C)C(=O)CC(C)(C)C1` [Example I-8-1]: the “activity (kill of beetle larvae)” value in test [1] is “good activity”. In addition, the “activity (nematicidal action by gall formation)” value in the test with Meloidogyne incognita is “good activity”. For the same compound, the “degree of damage to the plants, Abutilon” value in the test on Abutilon is on record as 80%. Besides, the results for the “degree of damage to the plants, Alopecurus” value in the test on Alopecurus [2] and in the test with Alopecurus [5] were 90% and 80%, respectively. Further, the “degree of damage to the plants, Avena fatua” value with Avena fatua was 90%. The “degree of damage to the plants, Echinochloa” value in the test with Echinochloa [3] and in the test on Echinochloa [6] was 100% throughout. Also, the “degree of damage to the plants, Setaria” value with Setaria [4] and in the test on Setaria [7] was 100% throughout. Moreover, the “degree of damage to the plants, Sugar beet” value with Sugar beet is 0%.
